Results from patent US20180228801A1, “Method for Enhancing Learning Ability and Memory of Patients with Alzheimer's Disease using Mocetinostat” (National Taiwan Normal University, priority 2017, published 2018).

How the values were obtained:
[1] = tested on: primary hippocampus neurons; test: Cell viability analysis (MTT assay); format: cell-based, mouse (C57BL/6J); settings: Mus musculus, Neuron; primary hippocampus neurons treated on day 9, viability after 48 hours; read-out: IC50 dose, cell viability
Method: The method of culturing mouse primary hippocampus neurons follow from a modified method from the prior art (Seibenhener and Wooten, 2012), including: obtaining a 16-18 day old embryo from a C57BL/6J strain pregnant female mouse after euthanasia, obtaining hippocampus tissue of the embryo and digesting the tissue with 0.05% trypsin at 37° C. for 15 minutes, and seeding 3×10^4 cells per well in a 48-well plate coated with Poly-L-lysine (100 μg/mL); wherein the components of the medium includes: Neurobasal Medium® (Gibco™; ThermoFisher Scientific, USA) adding 2% of B-27® Additive (Gibco™; ThermoFisher), 0.5 mM of glutamine (Gibco™; ThermoFisher), 25 μM of glutamate (Sigma-Aldrich, USA), 20 unit/mL of penicillin/streptomycin solution (Gibco™; ThermoFisher Scientific, USA), 1 mM of 4-(2-hydroxyethyl)-1-piperazineethanesulfonic acid) (HEPES) (Sigma-Aldrich), and 1% of heat inactivated Donor Horse Serum (Gibco™; ThermoFisher). […]
(3-(4,5-Dimethylthiazol-2-yl)-2,5-diphenyltetrazolium bromide, MTT) (Sigma, USA) has an original color of yellow, which is able to carry out a reducing reaction by a succinate dehydrogenase of mitochondria within living cells that breaks the tetrazolium ring thereof so as to form formazan, which has a violet color. […] Finally, the cell viability may be analyzed by detecting the changes of violet color (O.D. 570) by a spectrophotometer. […]

synaptophysin = test: Western blot, synaptophysin; format: in vivo, mice (C57BL/6J); settings: Aβ25-35 mice, hippocampus
Method: (§1) Further, in some embodiments of the present invention, C57BL/6J strain male mice (12 week old) are used as a subject in need. After mice are allowed to adapt to the environment for 6 days, mice are anesthetized with Avertin (0.4 g/kg; purchased from Sigma). The mice are fixed on a stereotactic apparatus for operation, followed by injecting oligomeric Aβ25-35 (10 nM, 3 μL) into bilateral hippocampal CA1 (AP: […] relative to the bregma; ML: ±[…] relative to the midline; DV: […] relative to the skull) on day 7. MGCD0103 and equal volume of vehicle (saline) are intraperitoneal (i.p.) injected once a day from day 8, the day after said operation, for 29 days. On day 24, the Open Field Test is performed; on day 26, the EPM is performed; on day 28, the Y-maze is performed; on days 30 to 36, MWM is performed; and on day 37, mice are euthanized for pathological analysis.

PSD95 = test: Western blot, PSD95; format: in vivo, mice (C57BL/6J); settings: hippocampus
Method: as §1

inactivated GSK3β (pS9) = test: Western blot, inactivated GSK3β (pS9); format: in vivo, mice (C57BL/6J); settings: Aβ25-35 mice, hippocampus
Method: as §1

Tau protein at Thr-205 = test: Western blot, Tau phosphorylation at Thr-205; format: in vivo, mice (C57BL/6J); settings: Aβ25-35 mice, hippocampus
Method: as §1

[2] = tested on: Tau protein at the Ser-202 site; test: Immunohistochemical staining, pS202Tau; format: in vivo, mice (C57BL/6J); settings: Aβ25-35 mice
Method: as §1
(§2) The inventor collects the brain tissue by perfusion followed by fixing and dehydrating, then, 30 μm frozen sections are obtained by a freezing microtome (CMS3050S, Leica). […] After that, avidin-biotin complex (ABC) is detected 1 hour after staining. […] After all sections have been stained, they are then fixed on a slide, dried, dehydrated, mounted, and photographed for quantity (performed by Image Pro Plus, Meida Cyberetics, USA).

[3] = tested on: Aβ accumulation in hippocampal CA1; test: Immunohistochemical staining, Aβ accumulation (6E10); format: in vivo, mice (C57BL/6J); settings: Aβ25-35 mice
Method: as §1, §2

[4] = tested on: BACE1 (Aβ forming enzyme); test: Western blot, BACE1; format: in vivo, mice (C57BL/6J); settings: Aβ25-35 mice, hippocampus
Method: as §1

[5] = tested on: NEP (Aβ degrading enzyme); test: Western blot, NEP; format: in vivo, mice (C57BL/6J); settings: hippocampus
Method: as §1

astrocytes = test: Immunohistochemical staining, astrocytes in hippocampus; format: in vivo, mice (C57BL/6J); settings: Aβ25-35 mice
Method: as §1, §2

activated microglia = test: Immunohistochemical staining, activated microglia in hippocampus; format: in vivo, mice (C57BL/6J); settings: Aβ25-35 mice
Method: as §1, §2

[6] = tested on: cholinergic neurons in medial septum/diagonal band (MS/DB); test: Immunohistochemical staining, cholinergic neurons (ChAT); format: in vivo, mice (C57BL/6J); settings: saline-injected mice; Mean±SEM
Method: as §1
as §2, with “USA). […]” for “USA).”

[7] = tested on: serotonergic neurons in Raphe nucleus; test: Immunohistochemical staining, serotonergic neurons (5HT); format: in vivo, mice (C57BL/6J); settings: saline-injected mice; Mean±SEM
Method: as §1
as §2, with “USA). […]” for “USA).”

[8] = tested on: adrenergic neurons in locus coeruleus (LC); test: Immunohistochemical staining, adrenergic neurons (TH); format: in vivo, mice (C57BL/6J); settings: saline-injected mice; Mean±SEM
Method: as §1
as §2, with “USA). […]” for “USA).”

Nc1ccccc1NC(=O)c1ccc(CNc2nccc(-c3cccnc3)n2)cc1 [MGCD0103, N-(2-Aminophenyl)-4-[[(4-pyridin-3-ylpyrimidin-2-yl)amino]methyl] benzamide]
IC50 [1]: ~7 µM
expression of synaptophysin (synaptophysin): significantly increased
expression of PSD95 (PSD95): no significant difference
expression of inactivated GSK3β (pS9) (inactivated GSK3β (pS9)): considerably increased
phosphorylation expression of Tau protein at Thr-205 (Tau protein at Thr-205): decreased
pS202Tau ([2]; BLA region): significantly decreased
pS202Tau ([2]; hippocampal CA1): significantly decreased
Aβ accumulation within the hippocampal CA1 [3]: relieved
expression of BACE1 [4]: does not show a significant difference
expression of NEP [5]: do not have significant difference
numbers of astrocytes (astrocytes): significantly decrease
numbers of activated microglia (activated microglia): significantly decrease
ChAT, numbers of cholinergic neurons [6]: 52.75 ± 8.27
5HT, numbers of serotonergic neurons [7]: 21.43 ± 1.32
TH, numbers of adrenergic neurons [8]: 44.58 ± 2.05
